# ± gives the expanded uncertainty stated by the source.
# Columns and labels:
# [1] = 298.15 K, Drop volume
# [2] = xn = mol fraction of the nth substance listed; settings: 298.15 K, Drop volume
structure (smiles),measurement,setting,value
"Cc1ccccc1C [1,2-dimethylbenzene]",surface tension liquid-gas,[1],29.27 ± 0.21 mN/m
"Cc1cccc(C)c1 [1,3-dimethylbenzene]",surface tension liquid-gas,[1],28.03 ± 0.21 mN/m
"Cc1ccc(C)cc1 [1,4-dimethylbenzene]",surface tension liquid-gas,[1],27.7 ± 0.21 mN/m
CCCOC(=O)CC [propyl propanoate],surface tension liquid-gas,[1],24.1 ± 0.19 mN/m
CCCOC(=O)CC [propyl propanoate] + Cc1ccc(C)cc1,surface tension liquid-gas,[2]; x1 = 0.061,27.46 ± 0.2 mN/m
same,surface tension liquid-gas,[2]; x1 = 0.0898,27.35 ± 0.2 mN/m
same,surface tension liquid-gas,[2]; x1 = 0.1545,27.09 ± 0.2 mN/m
same,surface tension liquid-gas,[2]; x1 = 0.2219,26.82 ± 0.2 mN/m
same,surface tension liquid-gas,[2]; x1 = 0.2558,26.69 ± 0.2 mN/m
same,surface tension liquid-gas,[2]; x1 = 0.3257,26.42 ± 0.2 mN/m
same,surface tension liquid-gas,[2]; x1 = 0.388,26.18 ± 0.2 mN/m
same,surface tension liquid-gas,[2]; x1 = 0.4204,26.07 ± 0.2 mN/m
same,surface tension liquid-gas,[2]; x1 = 0.4851,25.83 ± 0.2 mN/m
same,surface tension liquid-gas,[2]; x1 = 0.5211,25.71 ± 0.2 mN/m
same,surface tension liquid-gas,[2]; x1 = 0.5809,25.5 ± 0.19 mN/m
same,surface tension liquid-gas,[2]; x1 = 0.6209,25.38 ± 0.19 mN/m
same,surface tension liquid-gas,[2]; x1 = 0.6846,25.17 ± 0.19 mN/m
same,surface tension liquid-gas,[2]; x1 = 0.7187,25.07 ± 0.19 mN/m
same,surface tension liquid-gas,[2]; x1 = 0.7976,24.82 ± 0.19 mN/m
same,surface tension liquid-gas,[2]; x1 = 0.8562,24.62 ± 0.19 mN/m
same,surface tension liquid-gas,[2]; x1 = 0.8779,24.56 ± 0.19 mN/m
same,surface tension liquid-gas,[2]; x1 = 0.9544,24.28 ± 0.19 mN/m
CCCOC(=O)CC [propyl propanoate] + Cc1cccc(C)c1,surface tension liquid-gas,[2]; x1 = 0.0621,27.69 ± 0.21 mN/m
same,surface tension liquid-gas,[2]; x1 = 0.0989,27.5 ± 0.21 mN/m
same,surface tension liquid-gas,[2]; x1 = 0.1636,27.19 ± 0.2 mN/m
same,surface tension liquid-gas,[2]; x1 = 0.2293,26.88 ± 0.2 mN/m
same,surface tension liquid-gas,[2]; x1 = 0.2608,26.74 ± 0.2 mN/m
same,surface tension liquid-gas,[2]; x1 = 0.3264,26.45 ± 0.2 mN/m
same,surface tension liquid-gas,[2]; x1 = 0.4215,26.07 ± 0.2 mN/m
same,surface tension liquid-gas,[2]; x1 = 0.6132,25.34 ± 0.19 mN/m
same,surface tension liquid-gas,[2]; x1 = 0.7485,24.86 ± 0.19 mN/m
same,surface tension liquid-gas,[2]; x1 = 0.7827,24.74 ± 0.19 mN/m
same,surface tension liquid-gas,[2]; x1 = 0.8542,24.52 ± 0.19 mN/m
same,surface tension liquid-gas,[2]; x1 = 0.8896,24.41 ± 0.19 mN/m
CCCOC(=O)CC [propyl propanoate] + Cc1ccccc1C,surface tension liquid-gas,[2]; x1 = 0.0587,28.88 ± 0.21 mN/m
same,surface tension liquid-gas,[2]; x1 = 0.0915,28.66 ± 0.21 mN/m
same,surface tension liquid-gas,[2]; x1 = 0.1548,28.27 ± 0.21 mN/m
same,surface tension liquid-gas,[2]; x1 = 0.2236,27.85 ± 0.21 mN/m
same,surface tension liquid-gas,[2]; x1 = 0.2531,27.68 ± 0.21 mN/m
same,surface tension liquid-gas,[2]; x1 = 0.3216,27.3 ± 0.2 mN/m
same,surface tension liquid-gas,[2]; x1 = 0.3862,26.95 ± 0.2 mN/m
same,surface tension liquid-gas,[2]; x1 = 0.4212,26.77 ± 0.2 mN/m
same,surface tension liquid-gas,[2]; x1 = 0.4836,26.45 ± 0.2 mN/m
same,surface tension liquid-gas,[2]; x1 = 0.517,26.29 ± 0.2 mN/m
same,surface tension liquid-gas,[2]; x1 = 0.5814,25.98 ± 0.2 mN/m
same,surface tension liquid-gas,[2]; x1 = 0.6503,25.64 ± 0.2 mN/m
same,surface tension liquid-gas,[2]; x1 = 0.6829,25.49 ± 0.19 mN/m
same,surface tension liquid-gas,[2]; x1 = 0.7507,25.17 ± 0.19 mN/m
same,surface tension liquid-gas,[2]; x1 = 0.7823,25.03 ± 0.19 mN/m
same,surface tension liquid-gas,[2]; x1 = 0.8909,24.54 ± 0.19 mN/m
same,surface tension liquid-gas,[2]; x1 = 0.9636,24.23 ± 0.19 mN/m

# — the NIST ThermoML archive (doi:10.1016/j.fluid.2004.12.009)
